Reference: patent US4389398A, “Amino glycoside antibiotics having antiprotozoal and anthelmintic activity” (priority 1978, dated 1983)
In brackets after ≈: the same amount, converted by molar mass. Where two headings read alike, the source gives them in different places.

Columns and labels:
Trichomonas vaginalis [1] = settings: at somewhat high dose ranges; cited from earlier work
Entamoeba histolytica [2] = settings: Albach et al., Am. J. Trop. Med. Hyg. 15, 885 (1965); cited from earlier work
Trichomonas vaginalis [3] = test: In vitro activity against Trichomonas vaginalis; format: cell-based; settings: for MIC / MBC: Trichomonas vaginalis; for MIC: read-out: Minimal 99% Suppression Level; for MBC: read-out: Minimal Cidal Level
From the text: In Table VI below is set forth the in vitro activity of the compounds of this invention against T. vaginalis. The test procedure used was substantially as described by R. J. Schnitzer on pages 289-331 in Experimental Chemotherapy, Volume 1, Academic Press, New York (1963).

[4] = test system: Pseudomonas aeruginosa SC; test: Protective activity in mice, Pseudomonas aeruginosa SC infection; format: in vivo; settings: subcutaneous one hour after infection, survivors at 48 hours, read-out: PD50
Description: (§1) Infected non-treated controls die in about 18 to 24 hours. Generally 5-7 dose levels are administered to mice weighing about 20 grams in groups of 7-10.

Entamoeba histolytica [5] = test: Stated activity against Entamoeba histolytica
Syphacia obvelata [6] = test: Stated anthelmintic activity against pinworms such as Syphacia obvelata
Entamoeba hystolytica = test: Activity against Entamoeba hystolytica (MIC and minimal cidal concentration); format: cell-based; settings: 48 hours
Syphacia obvelata [7] = test: Anthelmintic activity in vivo against Syphacia obvelata in mice; parameters: species or system male Millerton mice
Streptococcus pyogenes = test: In vitro minimal inhibitory concentration, Streptococcus pyogenes; format: cell-based; settings: free base; yeast beef broth medium, pH 7.4; read-out: MIC
Description: (§2) In Table III below is set forth the in vitro minimal inhibitory concentration of gentamicin B, gentamicin B1 and gentamicin X all in the free base form against a variety of gram positive and gram negative microorganisms. The experiments were carried out in a yeast beef broth medium at pH 7.4.

Escherichia coli SC = test: Protective activity in mice, Escherichia coli SC infection; format: in vivo; settings: subcutaneous one hour after infection, survivors at 48 hours, read-out: PD50
Description: as §1

Trichomonas vaginalis [8] = test: Stated activity against Trichomonas vaginalis
Klebsiella pneumoniae = test: In vitro minimal inhibitory concentration, Klebsiella pneumoniae; format: cell-based; settings: free base; yeast beef broth medium, pH 7.4; read-out: MIC
Description: as §2

Staphylococcus aureus = test: In vitro minimal inhibitory concentration, Staphylococcus aureus; format: cell-based; settings: free base; yeast beef broth medium, pH 7.4; read-out: MIC
Description: as §2

Escherichia coli = test: In vitro minimal inhibitory concentration, Escherichia coli; format: cell-based; settings: free base; yeast beef broth medium, pH 7.4; read-out: MIC
Description: as §2

Bacillus subtilis = test: In vitro minimal inhibitory concentration, Bacillus subtilis; format: cell-based; settings: free base; yeast beef broth medium, pH 7.4; read-out: MIC
Description: as §2

Trichomonas foetus = test: Stated activity against Trichomonas foetus
[9] = test system: Staphylococcus aureus Gray; test: Protective activity in mice, Staphylococcus aureus Gray infection; format: in vivo; settings: sc, subcutaneous one hour after infection, survivors at 48 hours, read-out: PD50
Description: as §1

Pseudomonas aeruginosa = test: In vitro minimal inhibitory concentration, Pseudomonas aeruginosa; format: cell-based; settings: free base; yeast beef broth medium, pH 7.4; read-out: MIC
Description: as §2

Acute toxicity in mice = settings: mouse, in vivo
Description: The acute toxicity of gentamicin B, gentamicin B1 and gentamicin X is determined in male CF-1 (Carworth Farms) mice weighing about 20 grams each.

Histomonas meleagridis [10] = test: Stated activity against Histomonas meleagridis
Histomonas meleagridis [11] = test: Prophylactic activity in turkeys against Histomonas meleagridis; format: in vivo; settings: turkeys inoculated orally with 500 Heterakis gallinae ova
Description: Gentamicin A was administered to groups of turkeys at dosage levels of 5, 10, and 15 mg. per turkey per day in aqueous solution. Two days after the initiation of the drug, the turkeys were inoculated orally with 500 Heterakis gallinae ova (the intermediate host carrier of Histomonas). A single group of turkeys received 0.035% of gentamicin A in their feed for six days. Untreated infected controls were also carried in each experiment. The test is continued for twelve days and the birds are autopsied on the thirteenth day. Infection is usually manifested principally in two areas, the cecum and the liver which are the areas examined during the autopsy.

bacteria = settings: cited from earlier work

Gentamicin C [Garamycin®, reference compound]
activity against T. vaginalis (in words) (Trichomonas vaginalis [1]): only slight activity | activity against E. histolytica (in words) (Entamoeba histolytica [2]): relatively ineffective | Minimal 99% Suppression Level (Trichomonas vaginalis [3]; 24 hours): 250 µg/mL | Minimal Cidal Level (Trichomonas vaginalis [3]; 24 hours): > 250 µg/mL | Minimal 99% Suppression Level (Trichomonas vaginalis [3]; 48 hours): 100 µg/mL | Minimal Cidal Level (Trichomonas vaginalis [3]; 48 hours): 100 µg/mL

CNC1C(O)C(OC2C(N)CC(N)C(OC3OC(CO)C(O)C(O)C3N)C2O)OCC1(C)O (centres unmarked) [Gentamicin X]
ED50 [4]: 7 mg/kg | antiprotozoal activity (in words) (Entamoeba histolytica [5]): effective | anthelmintic activity (in words) (Syphacia obvelata [6]): effective | MBC (Entamoeba hystolytica): 7 µg/mL (≈ 14.5 µM) | MIC (Entamoeba hystolytica; read-out: minimal inhibitory concentration): 4 µg/mL (≈ 8.29 µM) | anthelmintic effect (in words) (Syphacia obvelata [7]; 62 mg/kg/day): partially effective | % Infected (Syphacia obvelata [7]; 62 mg/kg/day, 0.05% in diet): 83% | Mean Worm Burden (Syphacia obvelata [7]; 62 mg/kg/day, 0.05% in diet): 27 | anthelmintic effect (in words) (Syphacia obvelata [7]; 310 mg/kg/day): totally effective | % Infected (Syphacia obvelata [7]; 310 mg/kg/day, 0.25% in diet): 0% | Mean Worm Burden (Syphacia obvelata [7]; 310 mg/kg/day, 0.25% in diet): 0 | anthelmintic activity (in words) (Syphacia obvelata [7]; male Millerton mice): exhibit anthelmintic activity | MIC (Streptococcus pyogenes): 0.3 to 0.75 µg/mL (≈ 0.622 to 1.55 µM) | ED50 (Escherichia coli SC): 1.5 mg/kg | antiprotozoal activity (in words) (Trichomonas vaginalis [8]): effective | MIC (Klebsiella pneumoniae): 0.75 µg/mL (≈ 1.55 µM) | MIC (Staphylococcus aureus): 0.08 to 0.75 µg/mL (≈ 0.166 to 1.55 µM) | MIC (Escherichia coli): 0.3 µg/mL (≈ 0.622 µM) | MIC (Bacillus subtilis): 0.03 µg/mL (≈ 0.0622 µM) | MIC (Trichomonas vaginalis [3]; 48 hours): 2.5 µg/mL (≈ 5.18 µM) | MBC (Trichomonas vaginalis [3]; 48 hours): 10 µg/mL (≈ 20.7 µM) | antiprotozoal activity (in words) (Trichomonas foetus): effective | ED50 [9]: 4 mg/kg | MIC (Pseudomonas aeruginosa): 0.3 to 0.75 µg/mL (≈ 0.622 to 1.55 µM) | LD50 (Acute toxicity in mice; ip): > 1000 mg/kg | LD50 (Acute toxicity in mice; iv): 225 mg/kg | antiprotozoal activity (in words) (Histomonas meleagridis [10]): effective

CNC1C(O)COC(OC2C(N)CC(N)C(OC3OC(CO)C(O)C(O)C3N)C2O)C1O (centres unmarked) [Gentamicin A]
antiprotozoal activity (in words) (Entamoeba histolytica [5]): effective | anthelmintic activity (in words) (Syphacia obvelata [6]): effective | antiprotozoal activity (in words) (Trichomonas vaginalis [8]): effective | minimum dosage level with prophylactic activity (Histomonas meleagridis [11]): 10 mg. per bird | MIC (Trichomonas vaginalis [3]; 24 hours): 10 µg/mL (≈ 21.3 µM) | MBC (Trichomonas vaginalis [3]; 24 hours): 25 µg/mL (≈ 53.4 µM) | MIC (Trichomonas vaginalis [3]; 48 hours): 5 to 10 µg/mL (≈ 10.7 to 21.3 µM) | MBC (Trichomonas vaginalis [3]; 48 hours): 10 µg/mL (≈ 21.3 µM) | antiprotozoal activity (in words) (Trichomonas foetus): effective | antibiotic activity (in words) (bacteria): rather weak antibiotic activity | antiprotozoal activity (in words) (Histomonas meleagridis [10]): effective
